We go through 14 compounds from publication PMC7140522, “The Pyrazolo[3,4-d]pyrimidine Derivative, SCO-201, Reverses Multidrug Resistance Mediated by ABCG2/BCRP” (Cells, 2020).

As usually defined, the IC50 is the concentration that inhibits the measured activity by half. Usually Papp stands for a coefficient for how fast a substance crosses the barrier.

Data set [1] concerns the target T1, CYP2B6 (Homo sapiens, UniProt P20813). Nature of the data set: biochemical.
The target of data set [2] is T1, CYP2B6. The following applies: both, 10 min, pH 7.4.
For data set [3], the system named is HT29SN-38-RES cells. Nature of the data set: MDR reversal analysis with MTT assay, HT29SN-38-RES. The format is cell-based, human. As to conditions: 72 hours, oxaliplatin is not a substrate for BCRP. On the procedure: (§1) Control conditions consisted of full growth medium. All treatments were performed in triplicate.
For data set [4] the following is noted: cited from earlier work.
The test system of data set [5] is MDCK-II-WT cells. Nature of the data set: MDR reversal analysis with MTT assay, MDCK-II-WT. The format is cell-based, canine. As to conditions: Canis lupus familiaris, 72 h drug exposure, read-out: IC50 Value for Each Cell Line: MDCK-II-WT. On the technique in general: Tetrazolium assays rely on reduction of a dye to a coloured formazan, in cell work by metabolically active cells.
Experimental: Cells were seeded in Nunc 96-well plates (2000 or 8000 cells/well for the MDCK-II and HT29 cells, respectively). Following cell attachment (12–24 h), drugs were added to a total volume of 200 µL. Control conditions consisted of full growth medium. All treatments were performed in triplicate. Following 72 h of drug exposure, MTT reagent was added for either 1 h (MDCK-II) or 3 h (HT29). For cell lysis and solubilization of the formazan crystals, DMSO was added to the MDCK-II cells, whereas acidified (0.02 M HCl) sodium dodecyl sulphate was added to the HT29 cells. […] Background optical density values were subtracted, and the average optical densities were calculated. Cell viability was calculated as percentage of untreated control cells. The mean IC50 values were determined using GraphPad Prism (version 6.0, San Diego, CA, USA).

Data set [6] addresses CYP2C8 (Homo sapiens, UniProt P10632). As to conditions: both, 10 min, pH 7.4.
The target in data set [7] is CYP2C19 (Homo sapiens, UniProt P33261). Nature of the data set: CYP inhibition, CYP2C19. As to conditions: HLM, omeprazole substrate.
For data set [8], the target named is T2, BCRP (Homo sapiens, UniProt Q9UNQ0).
T2 sequence (Q9UNQ0 1-655): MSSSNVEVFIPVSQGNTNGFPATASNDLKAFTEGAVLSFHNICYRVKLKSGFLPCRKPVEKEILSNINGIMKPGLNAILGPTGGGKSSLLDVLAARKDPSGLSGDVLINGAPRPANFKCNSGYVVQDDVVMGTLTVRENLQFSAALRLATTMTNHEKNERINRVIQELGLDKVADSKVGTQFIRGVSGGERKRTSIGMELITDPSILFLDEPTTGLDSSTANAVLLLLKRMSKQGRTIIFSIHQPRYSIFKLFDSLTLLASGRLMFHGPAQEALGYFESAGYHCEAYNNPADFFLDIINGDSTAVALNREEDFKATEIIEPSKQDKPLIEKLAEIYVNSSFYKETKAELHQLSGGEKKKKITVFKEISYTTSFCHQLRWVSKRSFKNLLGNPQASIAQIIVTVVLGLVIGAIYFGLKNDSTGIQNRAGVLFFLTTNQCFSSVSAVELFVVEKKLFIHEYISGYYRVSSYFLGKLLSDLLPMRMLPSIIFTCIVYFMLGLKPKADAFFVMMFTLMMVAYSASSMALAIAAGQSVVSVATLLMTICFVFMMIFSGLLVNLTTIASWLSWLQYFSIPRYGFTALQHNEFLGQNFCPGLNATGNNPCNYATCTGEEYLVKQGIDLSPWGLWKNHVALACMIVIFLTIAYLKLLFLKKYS
The experiment in a line: Cellular dye efflux assay (Hoechst 33342) in HT29SN-38-RES cells. The format is cell-based. Further details: endogenous in cells; host or cells: HT29 SN-38-RES (drug-selected HT29). The following applies: fluorescence microscopy and imaging cytometry.
Experimental: HT29 cells were seeded either into a 96-well Nunclon plate (Thermo Fisher Scientific, Roskilde, Denmark) at a density of 6000 cells/well (for Celigo Imaging Cytometry) or into a Nunc 6-well plate at a density of 150,000 cells/well (for fluorescence microscopy). […] Then, the cells were washed with ice-cold PBS to remove excess Hoechst dye. Drugs were added again and the cells were incubated for 1h at 37 °C. The plates were analyzed with either fluorescence microscopy (6-well plates) or imaging cytometry (96-well plates). For the Celigo Imaging Cytometry (Lawrence, MA, USA), the application “Target 1 + 2 (merge)” was used, and the mean fluorescence intensities were measured and data presented as percentage of parental control.

In data set [9] the target is T3, OAT3 (Homo sapiens, UniProt Q8TCC7).
T3 construct: expressed in transfected cells; host or cells: CHO
Nature of the data set: Fluorometric transporter inhibition, OAT3-CHO. The format is in vitro ADME. The following applies: CF substrate. On the procedure: (§2) Cells were seeded in a 96-well plate (20,000 cells/well) and used on days 2 or 3 post-seeding. […] Subsequently, substrate was added to the plate followed by 20 min incubation at 37 °C. The plate was then washed with cold assay buffer followed by fluorescence reading on a plate reader. The tested transporters, cell lines, substrates, and reference inhibitors are shown in the Supplementary Materials (Tables S1 and S2).
(§3) 110 Table S1. […]
OAT3 (h) inhibition (OAT3-CHO, CF substrate) […]
(§4) The IC50 values are shown for the analysed transporters with […]

Data set [10] deals with CYP2D6 (Homo sapiens, UniProt P10635). As to conditions: both, pH 7.4.
The target in data set [11] is T4, OATP1B1 (Homo sapiens, UniProt Q9Y6L6).
T4 construct: expressed in transfected cells; host or cells: CHO
The experiment in a line: Fluorometric transporter inhibition, OATP1B1-CHO. As to conditions: FMTX substrate. The format is in vitro ADME. The protocol:
as §2
110 Table S1. In vitro DMPK analysis of transporter inhibition
OATP1B1 OATP1B1-CHO Fluorescein methotrexate Rifampicin […]
OATP1B1 (h) inhibition (OATP1B1-CHO, FMTX substrate) […]
as §4

The target of data set [12] is T5, OATP1B3 (Homo sapiens, UniProt Q9NPD5).
T5 construct: expressed in transfected cells; host or cells: CHO
Nature of the data set: Fluorometric transporter inhibition, OATP1B3-CHO. The format is in vitro ADME. The following applies: FMTX substrate. On the procedure: as §2, §3
OATP1B3 OATP1B3-CHO Fluorescein methotrexate Rifampicin […]
OATP1B3 (h) inhibition (OATP1B3 -CHO, FMTX substrate) […]
as §4

Data set [13] has as its system HT29PAR cells. Nature of the data set: MDR reversal analysis with MTT assay, HT29PAR. The format is cell-based. The following applies: Homo sapiens, 72 h drug exposure, read-out: IC50 Value for Each Cell Line: HT29PAR. On the procedure:
as §1

The target of data set [14] is T2, BCRP. The experiment in a line: […] ATPase assay with recombinant BCRP membranes. The format is biochemical. Further details: purchased Solvo Biotechnology (via Sigma-Aldrich/Merck) SB-BCRP-M. As to conditions: sulfasalazine alone; basal activity 50.68. The protocol: After incubation with test compounds, MgATP was added to each well and incubated at 37 °C for 10 min. The ATPase reaction was stopped by the addition of 1x Developer solution at room temperature (RT). Two minutes after, 100 µL Blocker solution was added and the plate was incubated for 30 min at 37 °C for 30 min. The optical densities were measured at 620 nm using a PowerWave X Microplate spectrophotometer (BioTek, Bad Friedrichshall, Germany).

The subject of data set [15] is Caco-2 cell monolayers.
Experimental: (§5) Bidirectional transport experiments with [3H]-estrone-3-sulfate were completed with monolayers of Caco-2 cells from the American Type Culture Collection (ATCC) cultured on Transwell permeable supports for 27 days in Dulbecco’s modified Eagle’s medium, supplemented with 10% FBS, 10 μL·mL^−1 nonessential amino acids (×100), and 100 U·mL^−1 to 100 μg·mL^−1 penicillin-streptomycin solution. The transepithelial electrical resistance was measured across Caco-2 cell monolayers with an Endohm 12-cup electrode chamber (World Precision Instruments Inc., Sarasota, FL, USA) connected volt meter (EVOM, World Precision Instruments Inc., Sarasota, FL, USA) to ensure that cell monolayers were electrically tight before initiating transport experiments. Cell monolayers were allowed to equilibrate to room temperature before the resistance was measured. Prior to initiating the transport experiments, the cell monolayers were pre-incubated in transport buffer (HBSS supplemented with 10 mM HEPES, pH 7.4, and 0.05 % BSA) for 30 min. […] For transport experiments in the apical to basolateral direction, samples of 100 µL were taken from the basoteral compartment (volume 1 mL) at t = 15, 30, 45, 60, 90, and 120 min. From transport experiments in the basolateral to apical direction, samples of 50 µL were taken from the apical compartment (volume 0.5 mL) at the same time points. The withdrawn sample volume from the acceptor compartments were immediately replaced with an equal volume of blank transport buffer. The withdrawn samples were pipetted into scintillation vials and mixed with 2 mL of scintillation fluid. […] Transport of mannitol was measured to validate the barrier integrity of the Caco-2 cell monolayers.
(§6) Data treatment: The accumulated amount of compound (Qt, nmol) appearing in the donor compartment was plotted against time. The steady-state flux of compound was calculated as the slope of the linear part of this plot, thus correcting for lag-time effects. The apparent permeability was subsequently calculated with Equation (1):(1) P=J/C_0=Q_t/(C0*A_t) where J represents the steady state flux (nmol·cm^−2·min^−1), C0 represents the initial concentration in the donor compartment, At denotes the area of the permeable support (1.12 cm^2), and Qt is the accumulated amount of compound (nmol) in the receiver compartment at time t (min).
(§7) The ratio between apparent permeability in the basolateral to apical direction and the apparent permeability in the opposite direction (efflux ratio = PB−A/PA−B ) was used as a measure of active efflux transport.
Data set [16] can be described thus: Apparent permeability across Caco-2 cell monolayers. As to conditions: human, Caco-2, pH 7.4. In general terms: Passage across Caco-2 layers is used to estimate intestinal permeability.
Experimental: as §5, §6, §7

T1 sequence (P20813 whole entry): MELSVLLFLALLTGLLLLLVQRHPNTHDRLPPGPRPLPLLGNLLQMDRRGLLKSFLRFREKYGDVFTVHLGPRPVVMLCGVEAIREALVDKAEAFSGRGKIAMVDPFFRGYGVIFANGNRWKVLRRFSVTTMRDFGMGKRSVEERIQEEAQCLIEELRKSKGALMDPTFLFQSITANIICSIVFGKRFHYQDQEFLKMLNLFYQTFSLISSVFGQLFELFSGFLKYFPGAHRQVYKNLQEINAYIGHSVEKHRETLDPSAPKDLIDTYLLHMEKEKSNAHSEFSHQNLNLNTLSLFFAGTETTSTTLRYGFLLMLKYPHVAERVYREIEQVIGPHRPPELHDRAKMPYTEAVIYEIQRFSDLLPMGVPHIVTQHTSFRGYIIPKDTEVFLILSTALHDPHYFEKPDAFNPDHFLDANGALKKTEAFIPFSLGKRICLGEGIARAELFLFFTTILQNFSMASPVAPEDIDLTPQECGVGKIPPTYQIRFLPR
T4 sequence (Q9Y6L6 whole entry): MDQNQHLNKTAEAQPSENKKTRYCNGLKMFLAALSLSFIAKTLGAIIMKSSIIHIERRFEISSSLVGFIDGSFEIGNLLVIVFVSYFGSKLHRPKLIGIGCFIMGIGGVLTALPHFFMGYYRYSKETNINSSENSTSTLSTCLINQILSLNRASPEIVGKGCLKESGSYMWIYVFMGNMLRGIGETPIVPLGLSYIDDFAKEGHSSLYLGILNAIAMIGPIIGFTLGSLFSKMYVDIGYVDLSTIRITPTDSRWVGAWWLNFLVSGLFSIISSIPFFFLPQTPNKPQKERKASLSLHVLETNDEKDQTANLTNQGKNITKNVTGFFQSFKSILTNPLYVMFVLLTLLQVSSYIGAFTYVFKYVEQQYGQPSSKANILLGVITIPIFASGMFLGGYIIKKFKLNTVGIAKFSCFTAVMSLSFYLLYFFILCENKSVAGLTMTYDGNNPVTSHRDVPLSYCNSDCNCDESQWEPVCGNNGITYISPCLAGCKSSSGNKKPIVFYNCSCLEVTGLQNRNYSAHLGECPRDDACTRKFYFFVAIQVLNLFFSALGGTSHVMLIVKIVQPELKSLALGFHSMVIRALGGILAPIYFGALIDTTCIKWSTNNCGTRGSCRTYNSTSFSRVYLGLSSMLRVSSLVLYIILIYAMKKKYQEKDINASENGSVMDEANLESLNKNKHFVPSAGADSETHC
T5 sequence (Q9NPD5 whole entry): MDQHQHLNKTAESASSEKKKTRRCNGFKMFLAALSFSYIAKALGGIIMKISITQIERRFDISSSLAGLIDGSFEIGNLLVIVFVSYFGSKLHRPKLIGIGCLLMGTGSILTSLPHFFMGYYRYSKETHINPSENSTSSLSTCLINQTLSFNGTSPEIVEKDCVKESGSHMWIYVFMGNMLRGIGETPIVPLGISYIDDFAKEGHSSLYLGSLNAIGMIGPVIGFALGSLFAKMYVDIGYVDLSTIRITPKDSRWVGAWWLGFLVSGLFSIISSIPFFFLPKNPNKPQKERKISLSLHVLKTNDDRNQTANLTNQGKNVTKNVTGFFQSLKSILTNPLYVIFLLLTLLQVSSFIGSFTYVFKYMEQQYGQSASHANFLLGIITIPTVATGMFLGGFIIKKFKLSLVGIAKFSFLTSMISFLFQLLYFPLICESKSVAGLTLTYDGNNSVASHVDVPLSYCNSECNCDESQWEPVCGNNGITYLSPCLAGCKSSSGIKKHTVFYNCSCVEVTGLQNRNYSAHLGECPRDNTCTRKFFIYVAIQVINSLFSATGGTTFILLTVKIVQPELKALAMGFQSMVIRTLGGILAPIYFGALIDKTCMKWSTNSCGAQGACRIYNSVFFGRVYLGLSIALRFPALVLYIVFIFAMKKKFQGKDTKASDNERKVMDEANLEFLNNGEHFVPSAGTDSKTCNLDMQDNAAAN
Chain of CYP2D6 (P10635 whole entry): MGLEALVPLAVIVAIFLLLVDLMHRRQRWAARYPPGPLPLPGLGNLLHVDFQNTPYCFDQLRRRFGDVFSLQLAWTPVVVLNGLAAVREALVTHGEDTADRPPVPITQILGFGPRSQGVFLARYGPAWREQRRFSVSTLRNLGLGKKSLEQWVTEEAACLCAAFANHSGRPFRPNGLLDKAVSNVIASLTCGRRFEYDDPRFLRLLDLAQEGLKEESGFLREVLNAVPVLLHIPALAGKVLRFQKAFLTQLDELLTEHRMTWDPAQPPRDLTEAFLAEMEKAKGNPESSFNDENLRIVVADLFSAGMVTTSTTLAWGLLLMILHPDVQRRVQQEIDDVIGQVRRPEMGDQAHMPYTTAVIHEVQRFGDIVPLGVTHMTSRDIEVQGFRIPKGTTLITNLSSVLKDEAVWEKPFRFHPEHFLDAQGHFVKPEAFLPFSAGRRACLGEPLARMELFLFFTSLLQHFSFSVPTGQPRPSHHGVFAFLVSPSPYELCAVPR
Chain of CYP2C8 (P10632 whole entry): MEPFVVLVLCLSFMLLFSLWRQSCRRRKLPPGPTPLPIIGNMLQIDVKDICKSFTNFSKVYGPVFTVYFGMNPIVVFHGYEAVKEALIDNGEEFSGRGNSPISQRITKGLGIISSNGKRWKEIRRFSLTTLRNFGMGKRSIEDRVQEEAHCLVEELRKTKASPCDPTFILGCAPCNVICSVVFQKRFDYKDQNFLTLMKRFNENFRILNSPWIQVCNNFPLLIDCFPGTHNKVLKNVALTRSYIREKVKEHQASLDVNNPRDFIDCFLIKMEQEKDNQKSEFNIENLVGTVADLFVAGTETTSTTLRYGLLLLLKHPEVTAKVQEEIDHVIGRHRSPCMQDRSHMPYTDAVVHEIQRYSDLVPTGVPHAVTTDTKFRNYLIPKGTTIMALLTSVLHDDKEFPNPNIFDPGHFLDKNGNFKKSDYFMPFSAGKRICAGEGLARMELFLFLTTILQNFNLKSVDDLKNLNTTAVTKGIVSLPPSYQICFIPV
T3 sequence (Q8TCC7 whole entry): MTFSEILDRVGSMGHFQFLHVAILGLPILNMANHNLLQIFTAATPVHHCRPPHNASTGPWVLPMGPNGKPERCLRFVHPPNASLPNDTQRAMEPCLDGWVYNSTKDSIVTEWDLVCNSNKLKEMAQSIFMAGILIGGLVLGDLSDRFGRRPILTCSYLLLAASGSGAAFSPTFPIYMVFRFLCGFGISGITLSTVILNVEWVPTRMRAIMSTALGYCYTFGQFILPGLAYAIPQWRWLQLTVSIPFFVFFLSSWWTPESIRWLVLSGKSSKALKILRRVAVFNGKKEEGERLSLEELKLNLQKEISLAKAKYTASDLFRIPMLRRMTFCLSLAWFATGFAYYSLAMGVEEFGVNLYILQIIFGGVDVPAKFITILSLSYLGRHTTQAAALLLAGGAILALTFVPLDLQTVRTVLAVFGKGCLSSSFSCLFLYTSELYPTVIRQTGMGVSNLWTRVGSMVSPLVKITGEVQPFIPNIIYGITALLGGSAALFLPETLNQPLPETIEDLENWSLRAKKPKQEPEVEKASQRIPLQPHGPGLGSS
Chain of CYP2C19 (P33261 whole entry): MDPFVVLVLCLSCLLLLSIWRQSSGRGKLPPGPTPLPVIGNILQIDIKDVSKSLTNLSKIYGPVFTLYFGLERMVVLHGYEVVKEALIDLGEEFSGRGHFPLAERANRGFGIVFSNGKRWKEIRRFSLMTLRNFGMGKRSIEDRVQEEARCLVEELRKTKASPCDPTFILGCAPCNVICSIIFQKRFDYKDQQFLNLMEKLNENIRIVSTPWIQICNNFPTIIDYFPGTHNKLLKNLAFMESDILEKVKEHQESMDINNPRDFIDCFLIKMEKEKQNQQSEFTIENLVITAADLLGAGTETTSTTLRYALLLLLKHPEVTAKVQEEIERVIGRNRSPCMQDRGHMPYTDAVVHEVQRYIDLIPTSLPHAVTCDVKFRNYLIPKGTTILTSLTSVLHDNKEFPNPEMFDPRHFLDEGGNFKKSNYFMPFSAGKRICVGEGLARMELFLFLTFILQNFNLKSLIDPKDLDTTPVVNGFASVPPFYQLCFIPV

In the case of `COC(=O)[C@H](c1ccccc1Cl)N1CCc2sccc2C1` [Clopidogrel], the IC50 in data set [1] was determined as 740 nM. For the same compound, in data set [2], the nH was found to be 1.3. On to `COc1ccc2c3c([nH]c2c1)[C@H](CC(C)C)N1C(=O)[C@H](CCC(=O)OC(C)(C)C)NC(=O)[C@@H]1C3` [Ko143, reference compound], for which the “combinatorial effect with oxaliplatin on cell viability” value in [3] was “no added effects”. Besides, in data set [4], the stability in plasma entry is listed as “not stable in plasma”. Turning to `O=C1c2c(O)ccc(O)c2C(=O)c2c(NCCNCCO)ccc(NCCNCCO)c21` [Mitoxantrone], the IC50 in data set [5] turned out to be 157 ± 23 nM. `CC(C)(O)c1ccccc1CC[C@@H](SCC1(CC(=O)O)CC1)c1cccc(/C=C/c2ccc3ccc(Cl)cc3n2)c1` [Montelukast] displayed a nH in [6] of 0.8. In data set [7], `CCN(CC)CC#CCOC(=O)C(O)(c1ccccc1)C1CCCCC1` (stereo not drawn) [Oxybutynin] gave a nH of 1.0. For the compound `C/C=C/C[C@@H](C)C(=O)[C@H]1C(=O)N[C@@H](C(C)C)C(=O)N(C)CC(=O)N(C)[C@@H](CC(C)C)C(=O)N[C@@H](C(C)C)C(=O)N(C)[C@@H](CC(C)C)C(=O)N[C@@H](C)C(=O)N[C@H](C)C(=O)N(C)[C@@H](CC(C)C)C(=O)N(C)[C@@H](CC(C)C)C(=O)N(C)[C@@H](C(C)C)C(=O)N1C` [PSC833, reference compound], in data set [8], the “Hoechst accumulation in resistant cells” value is recorded as “did not have any effects”. With `CCCN(CCC)S(=O)(=O)c1ccc(C(=O)O)cc1` [Probenecid], in [9], the nH was 0.6. Consider `C=C[C@H]1C[N@@]2CC[C@H]1C[C@@H]2[C@@H](O)c1ccnc2ccc(OC)cc12` [Quinidine], for which, in [10], the nH is recorded as 1.1.

Turning to `CO[C@H]1/C=C/O[C@@]2(C)Oc3c(C)c(O)c4c(O)c(c(/C=N/N5CCN(C)CC5)c(O)c4c3C2=O)NC(=O)/C(C)=C\C=C\[C@H](C)[C@H](O)[C@@H](C)[C@@H](O)[C@@H](C)[C@H](OC(C)=O)[C@@H]1C` [Rifampicin], the nH in [11] is listed as 0.6; in data set [12], 0.4. In addition, the IC50 in data set [11] (NC: not calculable) was 2200 nM; in data set [12] (NC: not calculable), 5400 nM. Turning to `CCc1c2c(nc3ccc(O)cc13)-c1cc3c(c(=O)n1C2)COC(=O)[C@]3(O)CC` [SN-38, 7-Ethyl-10-hydroxycamptothecin], the half-maximal inhibitory concentration (IC50) in data set [13] was 16 ± 10 nM.

On to `O=C(O)c1cc(/N=N/c2ccc(S(=O)(=O)Nc3ccccn3)cc2)ccc1O` [Sulfasalazine, reference compound], for which the “maximal ATPase activity” value in data set [14] worked out at 104.8 nmol Pi/mg protein/min. Turning to `CC[C@@]1(O)C(=O)OCc2c1cc1n(c2=O)Cc2cc3c(CN(C)C)c(O)ccc3nc2-1` [Topotecan], the IC50 in data set [13] worked out at 8 ± 3 nM. `C[C@]12CC[C@@H]3c4ccc(OS(=O)(=O)O)cc4CC[C@H]3[C@@H]1CCC2=O` [[^3H]-estrone-3-sulfate]: in data set [15], the “apparent permeability in the efflux direction (basolateral to apical)” value was 2.7 ± 0.2 × 10^−5 cm/second, the “apparent permeability in the opposite direction (apical to basolateral)” value is listed as 2.2 ± 0.01 × 10^−6 cm/second and the “efflux ratio (PB-A/PA-B)” value turned out to be 12.2. Take `OC[C@@H](O)[C@@H](O)[C@H](O)[C@H](O)CO` [mannitol]: in [16], the Papp at 120 min, 0.8 µCi/mL turned out to be 0.21 ×10⁻⁶ cm/s.
